Experimental data as given in US8273542B2 (priority 2005, dated 2012).
Like-named read-outs stand apart in the source and are kept apart here.

Experiments:
[1] = target: T1, mT2R5 (Mus musculus, UniProt Q9JKT4); settings: Chandrashekar et al. 2000; cited from earlier work
T1 construct: host or cells: insect Sf9 cells
T1 sequence (Q9JKT4 1-300): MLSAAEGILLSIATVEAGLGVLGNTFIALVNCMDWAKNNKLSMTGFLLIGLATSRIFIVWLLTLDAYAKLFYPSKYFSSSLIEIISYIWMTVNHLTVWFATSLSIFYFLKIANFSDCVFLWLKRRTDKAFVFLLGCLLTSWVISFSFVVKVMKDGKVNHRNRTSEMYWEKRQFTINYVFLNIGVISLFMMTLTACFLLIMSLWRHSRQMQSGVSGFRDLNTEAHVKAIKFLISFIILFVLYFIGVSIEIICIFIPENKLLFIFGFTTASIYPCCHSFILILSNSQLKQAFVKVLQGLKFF

[2] = target: T2, hT2R54 (Homo sapiens, UniProt P59534); type: cell-based
T2 construct: expressed in transfected cells; host or cells: HEK293 cells stably expressing large T antigen and G16gust44; Transfection was transient for imaging
T2 sequence (P59534 18-338): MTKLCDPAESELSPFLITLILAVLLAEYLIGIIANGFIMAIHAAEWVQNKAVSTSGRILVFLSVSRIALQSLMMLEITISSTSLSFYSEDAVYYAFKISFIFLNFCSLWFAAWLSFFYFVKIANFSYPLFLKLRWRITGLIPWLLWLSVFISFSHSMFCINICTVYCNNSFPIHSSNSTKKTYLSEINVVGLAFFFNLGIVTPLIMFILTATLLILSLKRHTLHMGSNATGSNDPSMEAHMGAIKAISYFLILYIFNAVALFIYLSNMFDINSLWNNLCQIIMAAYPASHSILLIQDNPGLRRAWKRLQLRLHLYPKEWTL
Experimental: (§1) More particularly, the present inventors transfected HEK293 cells with a particular hT2R together with a chimeric G protein (G16 gust 44) which comprises the […] G protein sequence modified by the replacement of carboxy-44 amino acid residues with those of gustducin, and recorded responses of these cells to specific bitter ligands by calcium imaging methods.
(§2) Activation of these receptors by ranitidine is measured in a cell-based assay detecting changes in intracellular calcium concentration. In brief, human embryonic kidney cells stably expressing the large […] and a chimeric G protein (G16gust44) are transiently transfected with the a plasmid containing a particular hT2R54 nucleic acid sequence either by Ca^2+ phosphate or lipid-based systems. Transiently transfected cells are seeded into 24 well culture plates, and functional expression allowed to proceed for a total of 48 hours. The cells are then incubated with a fluorescent dye specific for calcium (Fluo-4 or Fura-2; Molecular Probes) that provides a fast, simple and reliable fluorescence-based method for detecting changes in calcium concentration inside the cell. Addition of ranitidine to cells elicits a signaling cascade leading to the activation of PLC and a subsequent increase in intracellular calcium concentration. This increase in calcium concentration changes the fluorescence properties of the calcium dye inside the cells. These changes are monitored using fluorescence microscopy and a specific design software (Imaging Workbench, Axon).
(§3) Transiently transfected cells are seeded into 24 well culture plates, and functional expression allowed to proceed for a total of 48 hours. The cells are then incubated with a fluorescent dye specific for calcium (Fluo-4 or Fura-2; Molecular Probes) that provides a fast, simple and reliable fluorescence-based method for detecting changes in calcium concentration inside the cell. […] This increase in calcium concentration changes the fluorescence properties of the calcium dye inside the cells. These changes are monitored using fluorescence microscopy and specific design software (Imaging Workbench, Axon).
as §3, with “Activation of these receptors by denatonium benzoate is measured in” for “Transiently transfected cells are seeded into 24 well culture plates, and functional expression allowed to proceed for”, “cell-based assay detecting changes in intracellular calcium concentration. […]” for “total of 48 hours.”

[3] = target: T3, hT2R8 (Homo sapiens, UniProt Q9NYW2); type: cell-based
T3 construct: expressed in transfected cells; host or cells: HEK293 cells stably expressing large T antigen and chimeric G protein G16gust44; Transfection was transient for imaging
T3 sequence (Q9NYW2 1-309): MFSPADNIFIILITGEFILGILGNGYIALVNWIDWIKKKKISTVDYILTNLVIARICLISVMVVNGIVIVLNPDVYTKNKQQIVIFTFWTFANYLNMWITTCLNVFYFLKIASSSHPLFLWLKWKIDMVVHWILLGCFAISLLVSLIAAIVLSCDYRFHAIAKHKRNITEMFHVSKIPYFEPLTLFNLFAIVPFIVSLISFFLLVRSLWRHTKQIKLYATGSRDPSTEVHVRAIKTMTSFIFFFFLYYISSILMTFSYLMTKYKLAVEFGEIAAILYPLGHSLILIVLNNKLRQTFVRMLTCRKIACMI
Experimental: as §1, §2
as §3, with “Activation of these receptors by denatonium benzoate is measured in” for “Transiently transfected cells are seeded into 24 well culture plates, and functional expression allowed to proceed for”, “cell-based assay detecting changes in intracellular calcium concentration. […]” for “total of 48 hours.”
(§4) Activation of these receptors by strychnine is measured in a cell-based assay detecting changes in intracellular calcium concentration. […] The cells are then incubated with a fluorescent dye specific for calcium (Fluo-4 or Fura-2; Molecular Probes) that provides a fast, simple and reliable fluorescence-based method for detecting changes in calcium concentration inside the cell. […] This increase in calcium concentration changes the fluorescence properties of the calcium dye inside the cells. These changes are monitored using fluorescence microscopy and a specific design software (Imaging Workbench, Axon).

[4] = target: T4, hT2R75 (Homo sapiens, UniProt P59540); type: cell-based
T4 construct: expressed in transfected cells; host or cells: HEK293 cells stably expressing large T antigen and G16gust44, transiently transfected
T4 sequence (P59540 1-309): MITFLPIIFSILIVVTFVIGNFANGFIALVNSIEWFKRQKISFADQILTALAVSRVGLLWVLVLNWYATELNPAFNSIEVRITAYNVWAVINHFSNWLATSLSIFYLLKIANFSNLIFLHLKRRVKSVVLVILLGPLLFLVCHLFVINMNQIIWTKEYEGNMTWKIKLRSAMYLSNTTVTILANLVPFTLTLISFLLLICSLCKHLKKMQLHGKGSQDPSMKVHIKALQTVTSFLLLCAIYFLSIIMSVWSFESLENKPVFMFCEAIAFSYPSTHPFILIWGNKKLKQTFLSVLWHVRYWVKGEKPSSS
Experimental: as §1, §2
as §4, with “denatonium benzoate” for “strychnine”, “and” for “and a”
as §4

[5] = taste detection threshold; type: in vivo, humans
[6] = target: T2, hT2R54; test: dose response, stable HEK-G16gust44 line, calcium dye, FLIPR or VIPR; type: cell-based; settings: for dose response of hT2R54: stable HEK-G16gust44 line
Experimental: (§5) A HEK-G16gust44 line stably expressing high levels of hT2R8 or hT2R54 on its cell surface is used in high throughput screening assays. In this platform, the cells are seeded into 96 well or 384 well culture plates 18-24 hours before the assay. The cells are then incubated with the fluorescent calcium sensitive dye (Molecular Devices) and are stimulated and read in a standard fluorescence intensity plate reader (FLIPR or VIPR). Using this approach we have been able to further characterize the ranitidine effect on hT2R8 and hT2R54.
as §5, with “HEK-G16gust44 cell” for “HEK-G16gust44”, “of” for “of hT2R8 or”, “acetaminophen” for “ranitidine”, “on” for “on hT2R8 and”

[7] = target: T5, hT2R61 (Homo sapiens, UniProt P59537, H212R/W35S); type: cell-based; settings: concentration not given
T5 construct: expressed in transfected cells; host or cells: HEK293 cells stably expressing large T antigen and G16gust44, transiently transfected
T5 sequence (P59537 1-309 W35S/H212R): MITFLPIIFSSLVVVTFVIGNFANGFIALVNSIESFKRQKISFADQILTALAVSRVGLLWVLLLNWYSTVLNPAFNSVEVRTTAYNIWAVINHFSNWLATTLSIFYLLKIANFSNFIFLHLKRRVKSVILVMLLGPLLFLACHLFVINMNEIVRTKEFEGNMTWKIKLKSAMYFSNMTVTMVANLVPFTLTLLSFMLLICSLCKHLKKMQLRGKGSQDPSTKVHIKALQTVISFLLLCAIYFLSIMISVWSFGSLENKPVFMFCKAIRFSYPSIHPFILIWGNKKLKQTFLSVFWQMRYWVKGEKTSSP
Experimental: as §1
as §2, with “receptors by denatonium benzoate is measured” for “receptors by ranitidine is measured”, “a particular hT2R nucleic acid” for “a particular hT2R54 nucleic acid”, “the cell. […] This increase” for “the cell. Addition of ranitidine to cells elicits a signaling cascade leading to the activation of PLC and a subsequent increase in intracellular calcium concentration. This increase”, “microscopy and specific design” for “microscopy and a specific design”

[8] = target: T6, hT2R13 (Homo sapiens, UniProt Q9NYV9); type: cell-based; settings: concentration not given
T6 construct: expressed in transfected cells; host or cells: HEK293 cells stably expressing large T antigen and G16gust44, transiently transfected
T6 sequence (Q9NYV9 1-303): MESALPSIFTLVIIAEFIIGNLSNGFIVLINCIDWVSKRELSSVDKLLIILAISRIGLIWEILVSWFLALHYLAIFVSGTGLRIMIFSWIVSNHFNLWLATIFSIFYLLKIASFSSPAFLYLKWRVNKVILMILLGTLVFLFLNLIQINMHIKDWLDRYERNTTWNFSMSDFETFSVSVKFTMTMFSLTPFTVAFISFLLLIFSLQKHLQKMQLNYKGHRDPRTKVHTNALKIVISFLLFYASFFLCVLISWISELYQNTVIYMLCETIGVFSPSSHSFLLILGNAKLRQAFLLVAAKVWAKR
Experimental: as §1
as §2, with “receptors by denatonium benzoate is measured” for “receptors by ranitidine is measured”, “a particular hT2R nucleic acid” for “a particular hT2R54 nucleic acid”, “the cell. […] This increase” for “the cell. Addition of ranitidine to cells elicits a signaling cascade leading to the activation of PLC and a subsequent increase in intracellular calcium concentration. This increase”, “microscopy and specific design” for “microscopy and a specific design”

[9] = target: T7, hT2R4 (Homo sapiens, UniProt Q9NYW5); settings: Chandrashekar et al. 2000; cited from earlier work
T7 sequence (Q9NYW5 1-299): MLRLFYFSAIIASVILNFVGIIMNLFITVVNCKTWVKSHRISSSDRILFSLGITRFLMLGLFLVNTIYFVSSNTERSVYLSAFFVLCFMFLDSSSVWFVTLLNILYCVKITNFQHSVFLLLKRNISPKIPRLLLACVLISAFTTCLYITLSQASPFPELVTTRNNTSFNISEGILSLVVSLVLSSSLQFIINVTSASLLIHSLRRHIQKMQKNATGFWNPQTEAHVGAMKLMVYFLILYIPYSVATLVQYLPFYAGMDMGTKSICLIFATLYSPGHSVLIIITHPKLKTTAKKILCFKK

[10] = target: T3, hT2R8; test: dose response, stable HEK-G16gust44 line, calcium dye, FLIPR or VIPR; type: cell-based
Experimental: as §5
as §5, with “[…]” for “or hT2R54”, “VIPR).” for “VIPR). Using this approach we have been able to further characterize the ranitidine effect on hT2R8 and hT2R54.”

[11] = target: T8, hT2R10 (Homo sapiens, UniProt Q9NYW0); type: cell-based; settings: concentration not given
T8 construct: expressed in transfected cells; host or cells: HEK293 cells stably expressing large T antigen and G16gust44, transiently transfected
T8 sequence (Q9NYW0 1-307): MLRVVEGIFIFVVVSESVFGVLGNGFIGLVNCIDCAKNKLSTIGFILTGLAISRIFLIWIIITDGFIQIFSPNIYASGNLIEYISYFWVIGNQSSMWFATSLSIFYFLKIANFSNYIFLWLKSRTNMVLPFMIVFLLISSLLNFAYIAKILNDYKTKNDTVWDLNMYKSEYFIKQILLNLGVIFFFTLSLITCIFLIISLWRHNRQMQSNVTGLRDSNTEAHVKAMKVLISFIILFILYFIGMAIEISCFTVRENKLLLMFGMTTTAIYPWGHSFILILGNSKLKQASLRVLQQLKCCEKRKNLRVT
Experimental: as §1
as §4, with “denatonium benzoate” for “strychnine”, “and” for “and a”
Activation of these receptors by strychnine is measured in a cell-based assay detecting changes in intracellular calcium concentration. […] The cells are then incubated with a fluorescent dye specific for calcium (Fluo-4 or Fura-2; Molecular Probes) that provides a fast, simple and reliable fluorescence-based method for detecting changes in calcium concentration inside the cell. […]

Q: For `C[C@@H]1C[C@@H]([C@H](O)CC2CC(=O)NC(=O)C2)C(=O)[C@@H](C)C1` [cycloheximide], which “gustducin activation by mT2R5” value [1] is on record?
A: occurs only in response to cycloheximide

Q: For `OCc1ccccc1O[C@@H]1O[C@H](CO)[C@@H](O)[C@H](O)[C@H]1O` [salicin], which “response of hT2R54 in calcium imaging” value ([2]; 10 μM) is on record?
A: does not respond

Q: Which results are given for `OC[C@H]1O[C@@](CO)(O[C@H]2O[C@H](CO)[C@@H](O)[C@H](O)[C@H]2O)[C@@H](O)[C@@H]1O` [sucrose]?
A: response of hT2R54 in calcium imaging ([2]; 10 μM): did not respond; response of hT2R8 in calcium imaging ([3]; 10 μM): did not respond; response of hT2R75 in calcium imaging ([4]; 10 μM): did not respond

Q: For `CNC(=C[N+](=O)[O-])NCCSCc1ccc(CN(C)C)o1` [ranitidine], which “taste detection threshold / bitter taste threshold for humans” value [5] is on record?
A: 78 µM

Q: With `CC(=O)Nc1ccc(O)cc1` [acetaminophen] as the molecule, how does the “response of hT2R54 in calcium imaging” value ([2]; 10 μM) read?
A: responded specifically

Q: What about the “taste detection threshold / bitter taste threshold for humans” value [5] of the same molecule?
A: 1.25 µM

Q: And the EC50 [6]?
A: 1830 nM

Q: And the “dose response of hT2R54” value [6]?
A: typical dose-response relationship

Q: Which “response of hT2R61 in calcium imaging” value [7] does the source give for `CC[N+](CC)(CC(=O)Nc1c(C)cccc1C)Cc1ccccc1` [denatonium benzoate] here?
A: respond specifically

Q: What about the “response of hT2R13 in calcium imaging” value [8] of the same molecule?
A: respond specifically

Q: And the “response of hT2R54 in calcium imaging” value ([2]; concentration not given)?
A: respond specifically

Q: What about the “effective denatonium concentrations activating hT2R4” value [9] of the same molecule?
A: 1.5 mM

Q: What about the EC50 ([10]; dose response, FIG. 6) of the same molecule?
A: 450000 nM

Q: What about the “dose response of hT2R8” value ([10]; stable HEK-G16gust44 line) of the same molecule?
A: typical dose-response relationship

Q: What about the “response of hT2R10 in calcium imaging” value [11] of the same molecule?
A: respond specifically

Q: What about the taste detection threshold ([5]; in vivo) of the same molecule?
A: 24 mM

Q: What about the EC50 ([6]; dose response, FIG. 4, read-out: EC50, hT2R54) of the same molecule?
A: 380 nM

Q: And the “dose response of hT2R54” value [6]?
A: typical dose-response relationship

Q: And the “response of hT2R8 in calcium imaging” value ([3]; concentration not given)?
A: respond specifically

Q: And the “response of hT2R75 in calcium imaging” value ([4]; concentration not given)?
A: respond specifically
